ChEMBL document CHEMBL1629562, “Activity of indenoisoquinolines against African trypanosomes” (Antimicrob Agents Chemother, 2009)
Activity calls are given as the source filed them. No cut-off for these calls is given here.

What was measured:
[1] = test system: Trypanosoma brucei brucei; assay: Trypanocidal activity against Trypanosoma brucei brucei 427 bloodstream forms infected in mouse L1210 cells after 48 hrs; type: functional, organism-based; conditions: Trypanosoma brucei, 427, L1210, 48 h
[2] = test system: Trypanosoma brucei brucei; assay: Inhibition of Trypanosoma brucei brucei 427 bloodstream form DNA synthesis assessed as inhibition of [3H]thymidine incorporation at 10 uM by liquid scintillation counting; type: functional
[3] = test system: Trypanosoma brucei brucei; assay: Inhibition of Trypanosoma brucei brucei 427 bloodstream forms topoisomerase 1B in assessed as formation of enzyme-DNA cleavable complex at 10 uM
[4] = Therapeutic index, EC50 for mouse L1210 cells to EC50 for bloodstream-form Trypanosoma brucei brucei 427; type: cell-based; conditions: read-out: Ratio EC50
[5] = test system: Trypanosoma brucei brucei; assay: Inhibition of Trypanosoma brucei brucei 427 bloodstream forms topoisomerase 1B in assessed as formation of enzyme-DNA cleavable complex at 5 uM
[6] = test system: Trypanosoma brucei brucei; assay: Inhibition of Trypanosoma brucei brucei 427 bloodstream form DNA synthesis assessed as inhibition of [3H]thymidine incorporation at 5 uM by liquid scintillation counting; type: functional
[7] = test system: L1210; assay: Cytotoxicity against mouse L1210 cells; type: cell-based
[8] = test system: Trypanosoma brucei brucei; assay: Antitrypanosomal activity against Trypanosoma brucei brucei 427 bloodstream forms infected in CD1 mouse assessed as reduction in parasite load at 50 mg/kg, ip after 4 days; type: functional, organism-based; parameters: dose 50 mg/kg

Work on `NCCCn1c2c(c3ccccc3c1=O)C(=O)c1ccccc1-2` yielded an EC50 [1] of 380 nM.
With `O=C1c2ccccc2-c2c1c1ccccc1c(=O)n2CCCn1ccnc1` the EC50 [1] was 4200 nM.
`CC[C@@]1(O)C(=O)OCc2c1cc1n(c2=O)Cc2cc3ccccc3nc2-1` [CAMPTOTHECIN] gave an inhibition at 10 µM [2] of 27% and an inhibition [3] of 61%.
In the case of `COc1cc2c3c(n(CCCn4ccnc4)c(=O)c2cc1OC)-c1ccccc1C3=O`, the EC50 [1] is reported as 350 nM.
With `NCCCn1c2c(c3ccc([N+](=O)[O-])cc3c1=O)C(=O)c1ccccc1-2` the EC50 [1] was 140 nM.
Compound `COc1ccc2c(c1)C(=O)c1c-2n(CCCN)c(=O)c2cc(OC)c(OC)cc12` has an EC50 [1] of 50 nM, a selectivity ratio [4] of 5.6 and an inhibition [5] of 3%. The inhibition at 5 µM [6] was 68%, the EC50 [7] was 4300 nM and the inhibition [8] was “Active”.
Compound `COc1cc2c3c(n(CCCN)c(=O)c2cc1OC)-c1ccccc1C3=O` has an EC50 [1] of 130 nM, a selectivity ratio [4] of 4.3 and an inhibition [5] of 4%. It also gave an inhibition at 5 µM [6] of 67% and an EC50 [7] of 2800 nM.
Work on `NCCCn1c2c(c3ccccc3c1=O)C(=O)c1cc3c(cc1-2)OCO3` yielded an EC50 [1] of 60 nM.
With `COc1cc2c3c(n(CCCNCCNCCCN)c(=O)c2cc1OC)-c1cc2c(cc1C3=O)OCO2` the EC50 [1] was 650 nM, the selectivity ratio [4] was 4 and the inhibition [5] was 11%. The inhibition at 5 µM [6] was 44% and the EC50 [7] was 280 nM.
For `COc1cc2c3c(n(CCCN)c(=O)c2cc1OC)-c1ccc(C#N)cc1C3=O`, the EC50 [1] was 350 nM, the selectivity ratio [4] was 2.8 and the inhibition [5] was 3%. The inhibition at 5 µM [6] was 69% and the EC50 [7] was 970 nM.
`COc1cc2c3c(n(CCCN)c(=O)c2cc1OC)-c1cc2c(cc1C3=O)OCO2` showed an EC50 [1] of 120 nM, a selectivity ratio [4] of 2.1 and an inhibition [5] of 4%. The inhibition at 5 µM [6] was 61% and the EC50 [7] was 420 nM.
With `NCCCn1c2c(c3ccc(Br)cc3c1=O)C(=O)c1cc3c(cc1-2)OCO3` the EC50 [1] was 160 nM.
`O=C1c2ccccc2-c2c1c1ccc([N+](=O)[O-])cc1c(=O)n2CCCn1ccnc1` showed an EC50 [1] of 200 nM.
Compound `COc1ccc2c(c1)C(=O)c1c-2n(CCCN)c(=O)c2ccccc12` has an EC50 [1] of 140 nM.
`COc1cc2c3c(n(CCCNCCCNCCN)c(=O)c2cc1OC)-c1cc2c(cc1C3=O)OCO2` gave an EC50 [1] of 970 nM.
`COc1cc2c3c(n(CCCNCCCNCCCNCCCN)c(=O)c2cc1OC)-c1cc2c(cc1C3=O)OCO2` showed an EC50 [1] of 1500 nM, a selectivity ratio [4] of 1.9 and an inhibition [5] of 10%. It also gave an inhibition at 5 µM [6] of 34% and an EC50 [7] of 510 nM.
With `COc1cc2c(cc1OC)-c1c(c3ccc([N+](=O)[O-])cc3c(=O)n1CCCN)C2=O` the EC50 [1] was 140 nM.
For `NCCCn1c2c(c3ccc([N+](=O)[O-])cc3c1=O)C(=O)c1cc(F)ccc1-2`, the EC50 [1] was 80 nM.
Work on `NCCCn1c2c(c3ccc([N+](=O)[O-])cc3c1=O)C(=O)c1cc3c(cc1-2)OCO3` yielded an EC50 [1] of 50 nM.
With `COc1cc2c3c(n(CCCNCCCCN)c(=O)c2cc1OC)-c1cc2c(cc1C3=O)OCO2` the EC50 [1] was 990 nM, the selectivity ratio [4] was 4.3 and the inhibition [5] was 7%. It also gave an inhibition at 5 µM [6] of 56% and an EC50 [7] of 250 nM.
`COC(=O)c1ccc2c(c1)C(=O)c1c-2n(CCCN)c(=O)c2cc(OC)c(OC)cc12` showed an EC50 [1] of 170 nM, a selectivity ratio [4] of 2.5 and an inhibition [5] of 12%. The inhibition at 5 µM [6] was 66% and the EC50 [7] was 2600 nM.
Work on `COc1ccc2c(c1)C(=O)c1c-2n(CCCN)c(=O)c2cc([N+](=O)[O-])ccc12` yielded an EC50 [1] of 60 nM.
In the case of `COc1cc2c3c(n(CCCn4ccnc4)c(=O)c2cc1OC)-c1cc2c(cc1C3=O)OCO2` [INDIMITECAN], the EC50 [1] is reported as 60 nM.
